The target in this assay is T1, human FOXO1 (constitutively active form Thr24Ala, Ser256Ala, Ser319Ala) (Homo sapiens, UniProt Q12778, S256A/S319A/T24A).
T1 construct: expressed in transfected cells; host or cells: HEK293 cells transfected with pcDNA3.1 plasmid
The assay is described as follows: FOXO1 inhibitor activity assay: cell-based transcriptional (luciferase) reporter assay in HEK293 cells. As to conditions: HEK293 cells transfected with insulin response element firefly luciferase reporter, FOXO1 and Renilla luciferase; 10-point dose response 50 μM to 2.5 nM; 24 hours. A digest of the protocol: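 IC50 and maximal inhibition were fitted by 4-parameter logistic regression on normalized firefly/Renilla luciferase ratios. The 0% reference used RFP in place of FOXO1, and the 100% reference was DMSO-only with all plasmids.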
(In general: In a reporter assay the amount or activity of a reporter protein is the signal.)

The values below come from US20230416228A1 (Forkhead Biotherapeutics, Inc., priority 2020, published 2023).

SMILES strings stand for the structures. A value given as a limit tells only on which side of the number the result lay.

T1 sequence (Q12778 whole entry T24A/S256A/S319A): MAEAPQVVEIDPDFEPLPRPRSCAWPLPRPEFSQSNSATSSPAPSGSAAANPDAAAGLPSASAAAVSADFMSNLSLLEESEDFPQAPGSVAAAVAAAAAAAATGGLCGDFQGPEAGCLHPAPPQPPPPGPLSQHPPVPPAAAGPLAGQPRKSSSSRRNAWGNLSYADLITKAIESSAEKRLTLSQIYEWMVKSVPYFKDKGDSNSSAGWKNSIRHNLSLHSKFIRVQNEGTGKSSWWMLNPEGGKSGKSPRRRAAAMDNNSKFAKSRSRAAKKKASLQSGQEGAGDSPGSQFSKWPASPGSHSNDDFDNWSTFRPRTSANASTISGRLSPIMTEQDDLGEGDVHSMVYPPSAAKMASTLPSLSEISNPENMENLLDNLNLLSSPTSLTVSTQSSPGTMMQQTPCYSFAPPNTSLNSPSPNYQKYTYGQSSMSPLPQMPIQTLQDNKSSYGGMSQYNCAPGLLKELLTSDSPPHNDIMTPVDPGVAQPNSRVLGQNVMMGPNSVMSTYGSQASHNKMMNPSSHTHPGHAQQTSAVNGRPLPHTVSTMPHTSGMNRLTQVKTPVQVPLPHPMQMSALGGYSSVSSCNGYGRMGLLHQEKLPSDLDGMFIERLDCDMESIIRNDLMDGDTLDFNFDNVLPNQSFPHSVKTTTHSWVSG

In general, IC50 refers to the concentration needed to halve the response being measured. A low value points to higher potency. For `Cn1nc(NC(=O)c2ccc(N3CCOCC3)nc2)cc1-c1nc2cc(F)ccc2[nH]1` [Compound A-148, N-[5-(5-fluoro-1H-benzimidazol-2-yl)-1-methyl-pyrazol-3-yl]-6-morpholino-pyridine-3-carboxamide], the IC50 was in the range of 100 to 300 nM.

With `COCCN1CCN(c2ccc(C(=O)Nc3cc(-c4nc5cc(F)ccc5[nH]4)n(C)n3)cn2)CC1` [Compound A-149], the 50% inhibitory concentration (IC50) is 100 to 300 nM.

The compound `Cn1nc(NC(=O)c2ccc(N3CCN(CCO)CC3)nc2)cc1-c1nc2cc(F)ccc2[nH]1` [Compound A-150] gave a 50% inhibitory concentration (IC50) of 100 to 300 nM.

In the case of `Cn1nc(NC(=O)c2ccc(N3CCC[C@H]3C(=O)O)nc2)cc1-c1nc2cc(F)ccc2[nH]1` [Compound A-151, (2S)-1-[5-[[5-(5-fluoro-1H-benzimidazol-2-yl)-1-methyl-pyrazol-3-yl]carbamoyl]-2-pyridyl]pyrrolidine-2-carboxylic acid], the 50% inhibitory concentration (IC50) is more than 1000 nM.

`O=C(Nc1cc(-c2nc3ccccc3[nH]2)[nH]n1)c1ccc(OCCO)c(C(F)(F)F)c1` [Compound A-152, N-[5-(1H-benzimidazol-2-yl)-1H-pyrazol-3-yl]-4-(2-hydroxyethoxy)-3-(trifluoromethyl)benzamide] displayed an IC50 of less than 100 nM.

Compound `COC1CCN(c2ccc(C(=O)Nc3cc(-c4nc5cc(F)ccc5[nH]4)n(C)n3)cn2)CC1` [Compound A-153, N-[5-(5-fluoro-1H-benzimidazol-2-yl)-1-methyl-pyrazol-3-yl]-6-(4-methoxy-1-piperidyl)pyridine-3-carboxamide] yielded an IC50 of 100 to 300 nM.

`COCCN1CCN(c2ccc(C(=O)Nc3cc(-c4nc5cccc(F)c5[nH]4)n(C)n3)cn2)CC1` [Compound A-154]: the half-inhibitory concentration (IC50) was 100 to 300 nM.

On to `Cn1nc(NC(=O)c2ccc(N3CCC[C@H]3C(=O)O)nc2)cc1-c1nc2cccc(F)c2[nH]1` [Compound A-155, (2S)-1-[5-[[5-(7-fluoro-1H-benzimidazol-2-yl)-1-methyl-pyrazol-3-yl]carbamoyl]-2-pyridyl]pyrrolidine-2-carboxylic acid], for which the 50% inhibitory concentration (IC50) was more than 1000 nM.

For the compound `O=C(O)CN1CCN(c2ccc(C(=O)Nc3cc(-c4nc5ccccc5[nH]4)[nH]n3)cn2)CC1` [Compound A-156, 2-[4-[5-[[5-(1H-benzimidazol-2-yl)-1H-pyrazol-3-yl]carbamoyl]-2-pyridyl]piperazin-1-yl]acetic acid], the half-inhibitory concentration (IC50) is more than 1000 nM.

The compound `COC1CCN(c2ccc(C(=O)Nc3cc(-c4nc5cccc(F)c5[nH]4)n(C)n3)cn2)CC1` [Compound A-157] yielded an IC50 of 100 to 300 nM.

Turning to `Cn1nc(NC(=O)c2ccc(N3CCN(CCO)CC3)nc2)cc1-c1nc2cccc(F)c2[nH]1` [Compound A-158], the IC50 lay within 100 to 300 nM.

Compound `COC1CCN(c2ccc(C(=O)Nc3cc(-c4nc5ccccc5[nH]4)[nH]n3)cn2)CC1` [Compound A-159, N-[5-(1H-benzimidazol-2-yl)-1H-pyrazol-3-yl]-6-(4-methoxy-1-piperidyl)-pyridine-3-carboxamide] yielded an IC50 of less than 100 nM.

Turning to `Cn1nc(NC(=O)c2ccc(N3CCN(C4COC4)CC3)nc2)cc1-c1nc2cc(F)ccc2[nH]1` [Compound A-160], the half-inhibitory concentration (IC50) lay within 300 to 1000 nM.

`COc1ccc2nc(-c3cc(NC(=O)c4ccc(OC)c(Cl)c4)n[nH]3)cn2c1` [Compound A-161, 3-chloro-4-methoxy-N-[5-(6-methoxyimidazo[1,2-a]pyridin-2-yl)-1H-pyrazol-3-yl]benzamide]: the IC50 was in the range of 100 to 300 nM.

In turn, `COc1ccn2cc(-c3cc(NC(=O)c4ccc(OC)c(Cl)c4)n[nH]3)nc2c1` [Compound A-162, 3-chloro-4-methoxy-N-[5-(7-methoxyimidazo[1,2-a]pyridin-2-yl)-1H-pyrazol-3-yl]benzamide] gave an IC50 of more than 1000 nM.

`COc1ccc(C(=O)Nc2cc(-c3cn4ccc(C)cc4n3)[nH]n2)cc1Cl` [Compound A-163, 3-chloro-4-methoxy-N-[5-(7-methylimidazo[1,2-a]pyridin-2-yl)-1H-pyrazol-3-yl]benzamide] came in with a concentration for half-maximal inhibition (IC50) of 300 to 1000 nM.

In turn, `COCCOc1ccc(C(=O)Nc2cc(-c3nc4cccc(F)c4[nH]3)n(C)n2)cc1Cl` [Compound A-164, 3-chloro-N-[5-(7-fluoro-1H-benzimidazol-2-yl)-1-methyl-pyrazol-3-yl]-4-(2-methoxyethoxy)benzamide] displayed an IC50 of less than 100 nM.

With `Cn1nc(NC(=O)c2ccc(OCCO)c(Cl)c2)cc1-c1nc2cccc(F)c2[nH]1` [Compound A-165, 3-chloro-N-[5-(7-fluoro-1H-benzimidazol-2-yl)-1-methyl-pyrazol-3-yl]-4-(2-hydroxyethoxy)benzamide], the IC50 was less than 100 nM.

Compound `COCCOc1ccc(C(=O)Nc2cc(-c3nc4cc(F)ccc4[nH]3)n(C)n2)cc1Cl` [Compound A-166, 3-chloro-N-[5-(5-fluoro-1H-benzimidazol-2-yl)-1-methyl-pyrazol-3-yl]-4-(2-methoxyethoxy)benzamide] showed an IC50 of less than 100 nM.

In turn, `Cn1nc(NC(=O)c2ccc(OCCO)c(Cl)c2)cc1-c1nc2cc(F)ccc2[nH]1` [Compound A-167, 3-chloro-N-[5-(5-fluoro-1H-benzimidazol-2-yl)-1-methyl-pyrazol-3-yl]-4-(2-hydroxyethoxy)benzamide] displayed an IC50 of less than 100 nM.

The compound `Cn1nc(NC(=O)c2ccc(N3CCC(N4CCOCC4)CC3)nc2)cc1-c1nc2cc(F)ccc2[nH]1` [Compound A-168, N-[5-(5-fluoro-1H-benzimidazol-2-yl)-1-methyl-pyrazol-3-yl]-6-(4-morpholino-1-piperidyl)pyridine-3-carboxamide] had an IC50 of 100 to 300 nM.

The compound `CN(C1CCN(c2ccc(C(=O)Nc3cc(-c4nc5ccccc5[nH]4)[nH]n3)cn2)CC1)S(C)(=O)=O` [Compound A-169, N-[5-(1H-benzimidazol-2-yl)-1H-pyrazol-3-yl]-6-[4-[methyl(methyl-sulfonyl)amino]-1-piperidyl]pyridine-3-carboxamide] registered an IC50 of 100 to 300 nM.

`CC(=O)N(C)C1CCN(c2ccc(C(=O)Nc3cc(-c4nc5ccccc5[nH]4)[nH]n3)cn2)CC1` [Compound A-170, 6-[4-[acetyl(methyl)amino]-1-piperidyl]-N-[5-(1H-benzimidazol-2-yl)-1H-pyrazol-3-yl]pyridine-3-carboxamide] came in with an IC50 of 100 to 300 nM.

For the compound `O=C(Nc1cc(-c2nc3ccccc3[nH]2)[nH]n1)c1ccc(N2CCN(C3COC3)CC2)nc1` [Compound A-171, N-[5-(1H-benzimidazol-2-yl)-1H-pyrazol-3-yl]-6-[4-(oxetan-3-yl)-piperazin-1-yl]pyridine-3-carboxamide], the concentration for half-maximal inhibition (IC50) was less than 100 nM.

Turning to `O=C(Nc1cc(-c2nc3ccccc3[nH]2)[nH]n1)c1ccc(N2CCC(N3CCOCC3)CC2)nc1` [Compound A-172, N-[5-(1H-benzimidazol-2-yl)-1H-pyrazol-3-yl]-6-(4-morpholino-1-piperidyl)pyridine-3-carboxamide], the IC50 was less than 100 nM.

Compound `Cn1nc(NC(=O)c2ccc(N3CCC(N4CCOCC4)CC3)nc2)cc1-c1nc2cccc(F)c2[nH]1` [Compound A-173] gave a 50% inhibitory concentration (IC50) of 100 to 300 nM.

Regarding `COCCN1CCN(c2ccc(C(=O)Nc3cc(-c4nc5ccccc5[nH]4)[nH]n3)cc2)CC1` [Compound A-174, N-[5-(1H-benzimidazol-2-yl)-1H-pyrazol-3-yl]-4-[4-(2-methoxyethyl)-piperazin-1-yl]benzamide], the IC50 is less than 100 nM.
